This data set relates to vincristine-induced hyperalgesia in rats. Briefly: Vincristine-induced hyperalgesia in rats, electronic Von Frey test (paw-withdrawal threshold). In kind it is in vivo, Sprague Dawley rats. The procedure: Female Sprague Dawley rats were divided randomly into 5 groups (n=10), according to Table 7. Groups 2-4 were administered Vincristine 0.10 mg/kg injected intravenously (i.v.) via tail vein followed by a bolus injection of 0.1 ml PBS vehicle, once daily for 14 days. Group 1 was administered 1 ml/kg PBS vehicle alone according to the same schedule. D-Arg-2′6′-dimethyltyrosine-Lys-Phe-NH2 10 mg/kg was administered subcutaneously (s.c.) 15 minutes prior to vincristine administration for the full 14-day period (Group 3), or for a period of two weeks beginning at day 15 (Group 4). Group 5 was administered Vincristine 0.10 mg/kg injected i.v. via tail vein, followed by a bolus injection of 0.1 ml PBS vehicle once daily for 28 days, and D-Arg-2′6′-dimethyltyrosine-Lys-Phe-NH2 10 mg/kg administered s.c. for a period of 14 days beginning at day 15.
Mechanical nociceptive threshold of paw-withdrawal was measured every two days using an electronic Von Frey test. Results are shown in FIG. 1 and FIG. 2 as means±SEM. One-way ANOVA with post-hoc test or t-test were used to assess the statistical significance, with p<0.05 is considered statistically significant. In FIG. 1, data for subjects receiving vincristine in the absence of simultaneous D-Arg-2′6′-dimethyltyrosine-Lys-Phe-NH2 (Groups 2, 4, 5) is shown collectively as “Group A.”

“Also recorded” adds a separate entry of the source.

Regarding D-Arg-2′6′-dimethyltyrosine-Lys-Phe-NH2, the “treatment of vincristine-induced hyperalgesia” value (FIG. 2, rats, Groups 4 and 5) is reported as “effective in the treatment of vincristine-induced hyperalgesia in rats”. Besides, the “pain threshold (mechanical nociceptive threshold of paw-withdrawal), prevention” value (Group 3: peptide 10 mg/kg s.c. daily 15 min prior to vincristine 0.10 mg/kg i.v. for 14 days, vs vehicle-only control (Group 1), FIG. 1) is given as “not significantly different from the vehicle-only control; also recorded: effective in the prevention of vincristine-induced hyperalgesia in rats”. For the same compound, the “pain threshold (mechanical nociceptive threshold of paw-withdrawal), treatment after withdrawal of vincristine” value (Group 4: vincristine 0.10 mg/kg i.v. 14 days, then peptide 10 mg/kg s.c. daily for two weeks beginning at day 15, FIG. 2) is recorded as “improved pain threshold as soon as day 15, with continued improvement through day 25”. The “pain threshold (mechanical nociceptive threshold of paw-withdrawal), treatment while vincristine continues” value (Group 5: vincristine 0.10 mg/kg i.v. 28 days, peptide 10 mg/kg s.c. daily for 14 days beginning at day 15, FIG. 2) was “an arrest of the downward trend in pain threshold evident in the initial 14 day period, followed by an improvement in pain threshold beginning at day 16”.

As to `CC[C@]1(O)C[C@H]2CN(CCc3c([nH]c4ccccc34)[C@@](C(=O)OC)(c3cc4c(cc3OC)N(C=O)[C@H]3[C@@](O)(C(=O)OC)[C@H](OC(C)=O)[C@]5(CC)C=CCN6CC[C@]43[C@@H]65)C2)C1` [vincristine, reference compound], the “pain threshold after withdrawal of vincristine, no peptide” value (Group 2: vincristine 0.10 mg/kg i.v. 14 days + PBS vehicle, followed after day 14, FIG. 2) is “continued to show a decline in pain thereshold, reaching a low point at day 21, and showed a moderate improvement beginning at day 22”. For the same compound, for the setting “vincristine 0.10 mg/kg i.v. daily for 14 days without peptide, vs vehicle-only control (Group 1)”, the “pain threshold (mechanical nociceptive threshold of paw-withdrawal) under vincristine” value is recorded as “a decrease in pain threshold response compared to a vehicle-only control”.
